Assay results taken from patent publication EP1433779A1, “Use of nitriles as inhibitors of non-proteolytic enzymes” (Jerini AG, priority 2002, dated 2004).

How the values were obtained:
Test in all cases: biochemical
[1] = target: Human Cyclosporin A receptor with 18 kDa molecular weight, hCyp18 (Homo sapiens, UniProt P62937)
[2] = target: First described human Rapamycin receptor, hFKBP12 (Homo sapiens, UniProt P62942)
[3] = target: Leishmonia pneumophila virulence Cyclosporin A receptor with 18 kDa molecular weight, LpCyp18 (Legionella pneumophila subsp. pneumophila, UniProt Q5ZRZ4)
Chain of Leishmonia pneumophila virulence Cyclosporin A receptor with 18 kDa molecular weight, LpCyp18 (Q5ZRZ4 1-164 limits assumed): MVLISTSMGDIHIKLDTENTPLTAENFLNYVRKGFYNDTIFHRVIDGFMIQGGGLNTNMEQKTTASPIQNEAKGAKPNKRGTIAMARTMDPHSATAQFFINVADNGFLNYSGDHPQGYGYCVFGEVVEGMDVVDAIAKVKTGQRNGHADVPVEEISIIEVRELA

[4] = target: T1, Bacterial Juglon sensitive non proteolytic enzyme, EcParv (Escherichia coli, UniProt P0A9L5)
T1 sequence (P0A9L5 1-93): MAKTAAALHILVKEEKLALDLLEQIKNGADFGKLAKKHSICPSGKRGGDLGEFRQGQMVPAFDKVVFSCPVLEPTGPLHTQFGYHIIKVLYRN

Chain of First described human Rapamycin receptor, hFKBP12 (P62942 whole entry): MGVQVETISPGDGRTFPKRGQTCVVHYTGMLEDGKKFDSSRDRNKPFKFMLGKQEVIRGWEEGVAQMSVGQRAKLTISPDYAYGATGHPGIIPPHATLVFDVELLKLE
Chain of Human Cyclosporin A receptor with 18 kDa molecular weight, hCyp18 (P62937 whole entry): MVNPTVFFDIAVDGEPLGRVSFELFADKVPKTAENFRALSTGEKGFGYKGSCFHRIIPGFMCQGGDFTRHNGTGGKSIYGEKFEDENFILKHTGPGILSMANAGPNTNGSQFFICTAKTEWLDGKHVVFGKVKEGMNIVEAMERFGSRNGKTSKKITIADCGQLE

N#CCCNC(=S)Nc1ccc([N+](=O)[O-])cc1 [Compound 4]
IC50 [1]: > 100 µM
IC50 [2]: > 100 µM
IC50 [3]: > 100 µM
IC50 [4]: 10 to 50 µM
